ChEMBL document CHEMBL5620396, “Phenotypic screening identifies a trisubstituted imidazo[1,2-a]pyridine series that induces differentiation in multiple AML cell lines” (Eur J Med Chem, 2023)
Calls of active or inactive are those of the source. The rule behind the calls is not given here.

Columns and labels:
HL-60 = assay: Induction of differentiation in human HL-60 cells assessed as reduction in live cell number at 123 nM incubated for 4 days by acridine orange/DAPI staining based analysis; type: functional; details: time 4.0 day
[1] = Dose normalized AUC (0 to 8 hrs) in CD-1 mouse at 20 mg/kg, po administered as repeated dose on day 1 and 4; type: ADME, organism-based; details: in vivo, 96 h, time 4 day
[2] = Dose normalized Cmax in CD-1 mouse at 1 mg/kg, po administered as repeated dose on day 1 and 4; type: ADME, organism-based; details: in vivo, 96 h, time 4 day
[3] = Dose normalized AUC (0 to 8 hrs) in CD-1 mouse at 1 mg/kg, po administered as single dose and measured on day 1; type: ADME, organism-based; details: in vivo, 24 h, time 1 day
[4] = Oral bioavailability in CD-1 mouse at 3 mg/kg administered as single dose and measured over 24 hrs; type: ADME, organism-based; details: in vivo
Kasumi 1 [5] = assay: Induction of morphological changes in human Kasumi 1 cells assessed as variations in nuclear:cytoplasmic ratio at 10 uM; type: functional, cell-based
[6] = Cmax in CD-1 mouse at 1 mg/kg, po administered as repeated dose on day 1 and 4; type: ADME, organism-based; details: in vivo, time 4 day
THP-1 = assay: Induction of morphological changes in human THP-1 cells assessed as variations in cell size and shape at 10 uM; type: functional, cell-based
ME-1 = assay: Induction of differentiation in human ME-1 cells assessed as reduction in live cell number at 123 nM incubated for 4 days by acridine orange/DAPI staining based analysis; type: functional; details: time 4.0 day
Kasumi 1 [7] = assay: Induction of morphological changes in human Kasumi 1 cells assessed as variations in cell size and shape at 10 uM; type: functional, cell-based
[8] = Half life in CD-1 mouse at 1 mg/kg, po administered as repeated dose on day 1 and 4; type: ADME, organism-based; details: in vivo, time 4 day
OCI-AML-3 = assay: Induction of morphological changes in human OCI-AML-3 cells assessed as variations in nuclear segmentation at 10 uM; type: functional, cell-based
[9] = AUC (0 to 8 hrs) in CD-1 mouse at 1 mg/kg, po administered as repeated dose on day 1 and 4; type: ADME, organism-based; details: in vivo, time 4 day
[10] = Dose normalized AUC (0 to 8 hrs) in CD-1 mouse at 20 mg/kg, po administered as single dose and measured on day 1; type: ADME, organism-based; details: in vivo, 24 h, time 1 day
[11] = Dose normalized Cmax in CD-1 mouse at 1 mg/kg, po administered as single dose and measured on day 1; type: ADME, organism-based; details: in vivo, 24 h, time 1 day
Kasumi 1 [12] = assay: Induction of morphological changes in human Kasumi 1 cells assessed as appearance of granules and vacuoles at 10 uM; type: functional, cell-based

For `Cc1cc(F)ccc1-c1cc(NS(C)(=O)=O)c2ncc(-c3ccc4c(cnn4C)c3)n2c1`, the Activity (HL-60) was “Active”, the AUC/dose [1] was 218 ng·h/mL and the Cmax/dose [2] was 204 ng/mL. The AUC/dose [3] was 845 ng·h/mL, the bioavailability [4] was 100% and the Activity (Kasumi 1 [5]) was “Active”. The Cmax [6] was 204 ng/mL, the Activity (THP-1) was “Active” and the Activity (ME-1) was “Active”. The Activity (Kasumi 1 [7]) was “Active”, the half-life [8] was 2.5 h and the Activity (OCI-AML-3) was “Active”. For the same molecule, the AUC(0-t) at 96 h [9] was 731 ng·h/mL, the AUC/dose [10] was 223 ng·h/mL and the Cmax/dose [11] was 187 ng/mL. The Activity (Kasumi 1 [12]) was “Active”.
